Literature values in US6984402B2, “Chrono delivery formulations and method of treating atrial fibrillation” (Elite Laboratories, Inc., priority 2000, dated 2006).

half-life in blood (humans): 3 to 4 h
absolute bioavailability (oral, compared with intravenous administration): 40%
Structure (SMILES): COc1ccc([C@@H]2Sc3ccccc3N(CCN(C)C)C(=O)[C@@H]2OC(C)=O)cc1 [diltiazem]
